Earlier results as cited in patent US20110245202A1, “PHARMACEUTICAL COMPOSITION FOR THE TREATMENT OF RHINITIS” (priority 2003, published 2011).

Conditions: fraction of the action of naturally occurring (1R,2S)-ephedrine

## CN[C@H](C)[C@@H](O)c1ccccc1 [(1S,2R)-ephedrine]
  pharmacological action relative to the natural form (−)-ephedrine: approximately one third
